Experimental data taken from patent publication US20100254922A1, “COSMETIC AND/OR DERMATOLOGICAL COMPOSITION BASED ON N,N'-[…] ACID ESTER(S)” (L'OREAL, priority 2008, published 2010).

Assay: Solubility test of the ester compound in test solvents
Type: physicochemical
Method: The solubility tests were performed with the diisopropyl ester of N,N′-bis(benzyl)ethylenediamine-N,N′-diacetic acid.
The test solvent was poured into a beaker, an amount of the ester compound was added with magnetic stirring and the mixture was left to stand for between 1 hour and 24 hours. The mixture was then heated to 50° C. and then cooled to room temperature (25° C.) over 24 hours. The system was then observed to see if the amount of the ester compound introduced recrystallized or remained dissolved.
The amount of ester compound that can be dissolved in the test solvent was determined in this manner. The maximum value corresponds to the amount at and above which the ester compound stops dissolving in the evaluated solvent.

CC(C)OC(=O)CN(CCN(CC(=O)OC(C)C)Cc1ccccc1)Cc1ccccc1 [diisopropyl ester of N,N′-bis(benzyl)ethylenediamine-N,N′-diacetic acid]
Weight % of dissolved ester compound (solvent: 2-Ethylhexyl salicylate, 25° C.): 10 Weight %
Weight % of dissolved ester compound (solvent: 2-Octyldodecanol, 25° C.): 10 Weight %
Weight % of dissolved ester compound (solvent: Apricot oil, 25° C.): 12 Weight %
Weight % of dissolved ester compound (solvent: Butylene glycol, 25° C.): 1 Weight %
Weight % of dissolved ester compound (solvent: Cyclohexasiloxane, 25° C.): 4.7 Weight %
Weight % of dissolved ester compound (solvent: Cyclopentasiloxane, 25° C.): 4.5 Weight %
Weight % of dissolved ester compound (solvent: Dimethyl isosorbide, 25° C.): 38 Weight %
Weight % of dissolved ester compound (solvent: Dipropylene glycol, 25° C.): 10.7 Weight %
Weight % of dissolved ester compound (solvent: Ethanol, 25° C.): 8 Weight %
Weight % of dissolved ester compound (solvent: Glycerol, 25° C.): 1 Weight %
Weight % of dissolved ester compound (solvent: Hexylene glycol, 25° C.): 11.5 Weight %
Weight % of dissolved ester compound (solvent: Hydrogenated isoparaffin (Parleam from NOF), 25° C.): 9 Weight %
Weight % of dissolved ester compound (solvent: Isononyl isononanoate, 25° C.): 16 Weight %
Weight % of dissolved ester compound (solvent: Isopropyl N-lauroylsarcosinate (Eldew SL-205 from Ajinomoto), 25° C.): 18 Weight %
Weight % of dissolved ester compound (solvent: Isopropyl myristate, 25° C.): 11.5 Weight %
Weight % of dissolved ester compound (solvent: Isopropyl palmitate, 25° C.): 9 Weight %
Weight % of dissolved ester compound (solvent: Phenyl trimethicone (Dow Corning 556), 25° C.): 12 Weight %
Weight % of dissolved ester compound (solvent: Propylene glycol, 25° C.): 1 Weight %
Weight % of dissolved ester compound (solvent: Squalane, 25° C.): 9 Weight %
Weight % of dissolved ester compound (solvent: Water, heated to 50° C., cooled to room temperature (25° C.) over 24 hours): Insoluble
